# According to patent publication US11578074B2, “Nitrogenous heterocyclic compound, preparation method, intermediate, composition, and application” (SHANGHAI PHARMACEUTICALS HOLDING CO., LTD., priority 2017, dated 2023):
# Legend:
# [1] = In vivo pharmacokinetics study in beagle dogs; conditions: male, beagle, dog, in vivo, po, 15 mg/kg
# Procedure: 6 male beagle dogs (purchased from Beijing Marshall Biotechnology Co., Ltd., certificate No. SCXK (Beijing) 2016-0001) were divided into 2 groups with 3 dogs in each group, and all of the animals were fasted for about 12 hours before administration. One group was orally administrated with 15 mg/kg of the final product of Embodiment 22 (deionized water was added, followed by sonication for 29 minutes and stirring for 4 minutes, and a clear pale yellow dosing solution with a concentration of 3 mg/mL was prepared); the other group was orally administrated with 15 mg/kg of Pyrotinib (deionized water was added, followed by sonication for 28 minutes and stirring for 5 minutes, and a clear yellow dosing solution with a concentration of 3 mg/mL was prepared). Blood samples were collected before administration and at 15, 30, 60, 90, 120, 150, 180, 240, 360, 480, 720 and 1440 minutes respectively after administration.
# (§1) 1.0 mL of blood was collected from each animal through jugular vein puncture at each time point and heparin sodium was used for anticoagulation. The blood samples were collected and placed in labeled centrifuge tubes, and plasma was centrifuged (centrifugation conditions: 3500 rpm, 10 minutes, 2-8° C.). To 50 μL of plasma sample was added 300 μL of acetonitrile containing internal standard (Propranolol, 25 ng/mL) to precipitate the protain. After vortexing for 10 minutes and centrifuging at 6000 g for 20 minutes, 100 μL of supernatant was taken and injected into a 96-well plate. The drug concentration in plasma was determined by UPLC/MS-MS.
# [2] = In vivo pharmacokinetics study in cynomolgus monkeys; conditions: male, cynomolgus monkey, in vivo, po, 15 mg/kg
# Procedure: 6 male cynomolgus monkeys (purchased from Guangxi Guidong Primate Development Experiment Co., Ltd., certificate No. SCXK (Guangxi) 2013-0057) were divided into 2 groups with 3 in each group, and all of the animals were fasted for about 12 hours before administration. One group was orally administrated with 15 mg/kg of the final product of Embodiment 22 (deionized water was added, followed by sonication for 30 minutes and stirring for 3 minutes, and a clear pale yellow dosing solution with a concentration of 3 mg/mL was prepared); one group was administrated with 15 mg/kg of Pyrotinib (deionized water was added, followed by sonication for 30 minutes and stirring for 4 minutes, and a clear yellow dosing solution with a concentration of 3 mg/mL was prepared). Blood samples were collected before administration and at 15, 30, 60, 90, 120, 150, 180, 240, 360, 480, 720 and 1440 minutes respectively after administration.
# as §1
# [3] = test system: HER2 overexpressing human gastric cancer NCI-N87 nude mice xenograft; test: HER2 overexpressing human gastric cancer NCI-N87 nude mice xenograft model; assay type: in vivo; conditions: continuous oral administration for 21 days
# Text: We have established nude mice xenograft model for HER2 overexpression.
smiles,measurement,setting,value
"CCOc1cc2ncnc(Nc3ccc(Oc4ccn5ncnc5c4)c(C)c3)c2cc1NC(=O)/C=C/[C@H]1CCCN1C [Final product of Embodiment 22, (R,E)-N-(4-((4-([1,2,4]triazolo[1,5-a]pyridin-7-yloxy)-3-methylphenyl)amino)-7-ethoxyquinazolin-6-yl)-3-(1-methylpyrrolidin-2-yl)acrylamide]",AUC,[1],5190 ng·h/mL
same,peak oral absorption concentration,[1],432.6 ng/mL
same,AUC,[2],5580 ng·h/mL
same,oral absorption peak concentration,[2],506.5 ng/mL
same,tolerability,"[3]; 5 mg/kg, 10 mg/kg and 20 mg/kg",tolerant
same,tumor volume inhibition rate (GI %),[3]; 5 mg/kg,51.5%
same,tumor volume inhibition rate (GI %),[3]; 10 mg/kg,130.1%
same,tumor volume inhibition rate (GI %),[3]; 20 mg/kg,146.2%
